# Assay: log P determination by HPLC on reverse-phase column (C 18), EEC-Directive 79/831 Annex V.A8
# Assay type: physicochemical
# Conditions: HPLC reverse-phase C 18, acidic range pH 2.3, 43° C.
# Method: • The log P values given in the tables and preparation examples above are determined in accordance with EEC-Directive 79/831 Annex V.A8 by HPLC (High Performance Liquid Chromatography) on a reverse-phase column (C 18). Temperature: 43° C.
# The determination is carried out in the acidic range at pH 2.3 using the mobile phases 0.1% aqueous phosphoric acid and acetonitrile; linear gradient from 10% acetonitrile to 95% acetonitrile.
# The LC-MS determination in the acidic range is carried out at pH 2.7 using the mobile phases 0.1% aqueous formic acid and acetonitrile (contains 0.1% formic acid); linear gradient from […] acetonitrile to 95% acetonitrile.
# The LC-MS determination in the neutral range is carried out at pH 7.8 using the mobile phases 0.001 molar aqueous ammonium bicarbonate solution and acetonitrile; linear gradient from 10% acetonitrile to 95% acetonitrile.
# The calibration is carried out using unbranched alkan-2-ones (with 3 to 16 carbon atoms) with known log P values (determination of the log P values by retention times using linear interpolation between two successive alkanones).
row,logP,SMILES
1,4.17,COC1CCCC2(C1)OC(=O)C(c1c(C)cc(C)cc1C)=C2OC(=O)OC(C)C (stereo not shown) [Example I-2-c-3]
2,5.32,COC1CCCC2(C1)OC(=O)C(c1cc(-c3ccc(Cl)cc3)c(C)cc1C)=C2OC(=O)OC(C)C (stereo not shown) [Example I-2-c-2]
3,3.75,COc1cc(C)cc(C)c1C1=C(OC(=O)OC(C)C)C2(CCCC(OC)C2)OC1=O (stereo not shown) [Example I-2-c-5]
4,3.90,COc1cc(C)cc(C)c1C1=C(OC(=O)OC(C)C)C2(CCCC(OC)C2)OC1=O (stereo not shown) [Example I-2-c-6]

# Same assay, conditions: compounds of formula (I-2-a); generally isomer mixtures; those marked 1) were separated into cis and trans diastereomers
row,SMILES,logP
1,COC1CCCC2(C1)OC(=O)C(c1c(C)cc(C)cc1Br)=C2O (stereo not shown) [Example I-2-a-28],2.36
2,COC1CCCC2(C1)OC(=O)C(c1c(C)cc(C)c(F)c1C)=C2O (stereo not shown) [Example I-2-a-54],2.45
3,COC1CCCC2(C1)OC(=O)C(c1cc(C)ccc1Br)=C2O (mixture of isomers) [Example I-2-a-49],2.16
4,COC1CCCC2(C1)OC(=O)C(c1c(Cl)cccc1Cl)=C2O (stereo not shown) [Example I-2-a-15],1.93
5,COC1CCCC2(C1)OC(=O)C(c1ccc(Br)cc1Cl)=C2O (mixture of isomers) [Example I-2-a-37],2.31
6,COC1CCCC2(C1)OC(=O)C(c1c(Cl)ccc(C)c1Cl)=C2O (mixture of isomers) [Example I-2-a-52],2.23
7,COC1CCCC2(C1)OC(=O)C(c1cc(-c3cccc(Cl)c3)ccc1C)=C2O (stereo not shown) [Example I-2-a-33],3.16
8,COC1CCCC2(C1)OC(=O)C(c1ccc(C)cc1Cl)=C2O (stereo not shown) [Example I-2-a-22],2.13
9,COC1CCCC2(C1)OC(=O)C(c1cc(C)c(Br)cc1Br)=C2O (stereo not shown) [Example I-2-a-18],2.58
10,COC1CCCC2(C1)OC(=O)C(c1cc(F)c(C)cc1C)=C2O (mixture of isomers) [Example I-2-a-45],2.25
11,COC1CCCC2(C1)OC(=O)C(c1cc(C)ccc1C)=C2O (mixture of isomers) [Example I-2-a-35],2.15
12,COC1CCCC2(C1)OC(=O)C(c1ccc(Cl)cc1Cl)=C2O (mixture of isomers) [Example I-2-a-39],2.21
13,COC1CCCC2(C1)OC(=O)C(c1c(C)cc(C)c(C)c1C)=C2O (stereo not shown) [Example I-2-a-12],2.50
14,"COC1CCCC2(C1)OC(=O)C(c1c(C)cc(C)cc1C)=C2O (single isomer, unassigned) [Example I-2-a-14]",2.31^1)
15,COc1ccc(C2=C(O)C3(CCCC(OC)C3)OC2=O)c(C)c1 (mixture of isomers) [Example I-2-a-50],2.21
16,CCc1cc(Cl)c(C2=C(O)C3(CCCC(OC)C3)OC2=O)c(Br)c1 (stereo not shown) [Example I-2-a-29],2.62
17,COC1CCCC2(C1)OC(=O)C(c1ccccc1C)=C2O (stereo not shown) [Example I-2-a-7],1.81
18,COC1CCCC2(C1)OC(=O)C(c1c(C)cc(Br)cc1C)=C2O (stereo not shown) [Example I-2-a-10],2.40
19,COC1CCCC2(C1)OC(=O)C(c1c(C)cc(C)cc1Cl)=C2O (stereo not shown) [Example I-2-a-27],2.31

row,SMILES,logP
1,COC1CCCC2(C1)OC(=O)C(c1ccc(Cl)cc1Br)=C2O (mixture of isomers) [Example I-2-a-36],2.25
2,COC1CCCC2(C1)OC(=O)C(c1c(Cl)cc(C)cc1Cl)=C2O (stereo not shown) [Example I-2-a-21],2.27
3,COC1CCCC2(C1)OC(=O)C(c1cc(-c3ccc(Cl)cc3)c(C)cc1C)=C2O (mixture of isomers) [Example I-2-a-2],3.4
4,"COC1CCCC2(C1)OC(=O)C(c1ccc(Cl)cc1C)=C2O (single isomer, unassigned) [Example I-2-a-8]",2.11
5,CCOC1CCCC2(C1)OC(=O)C(c1c(C)cc(-c3ccc(Cl)cc3)cc1CC)=C2O (stereo not shown) [Example I-2-a-17],4.19
6,COC1CCCC2(C1)OC(=O)C(c1cc(-c3ccc(Cl)cc3)ccc1Cl)=C2O (stereo not shown) [Example I-2-a-31],3.14
7,"COc1cc(C)cc(C)c1C1=C(O)C2(CCCC(OC)C2)OC1=O (single isomer, unassigned) [Example I-2-a-16]",2.10^1)
8,COC1CCCC2(C1)OC(=O)C(c1c(C)cc(Cl)cc1Cl)=C2O (stereo not shown) [Example I-2-a-20],2.41
9,COC1CCCC2(C1)OC(=O)C(c1c(C)cc(C)c(-c3ccc(Cl)cc3)c1C)=C2O (mixture of isomers) [I-2-a-30],3.60
10,"COC1CCCC2(C1)OC(=O)C(c1cc(-c3ccc(Cl)cc3)ccc1C)=C2O (single isomer, unassigned) [Example I-2-a-32]",3.19^1)
11,"COC1CCCC2(C1)OC(=O)C(c1ccc(Cl)cc1C)=C2O (single isomer, unassigned) [Example I-2-a-6]",2.19
12,COC1CCCC2(C1)OC(=O)C(c1c(C)ccc(-c3ccc(Cl)cc3)c1C)=C2O (mixture of isomers) [Example I-2-a-42],3.29
13,COC1CCCC2(C1)OC(=O)C(c1cc(-c3cccc(Cl)c3)ccc1Cl)=C2O (stereo not shown) [Example I-2-a-34],3.11
14,CCc1cc(Br)cc(CC)c1C1=C(O)C2(CCCC(OC)C2)OC1=O (mixture of isomers) [Example I-2-a-3],2.98
15,CCc1cc(Br)cc(C)c1C1=C(O)C2(CCCC(OC)C2)OC1=O (stereo not shown) [Example I-2-a-13],2.74
16,COC1CCCC2(C1)OC(=O)C(c1c(C)ccc(Cl)c1C)=C2O (mixture of isomers) [Example I-2-a-46],2.42
17,COC1CCCC2(C1)OC(=O)C(c1cc(C)c(C)cc1C)=C2O (stereo not shown) [Example I-2-a-11],2.21
18,COC1CCCC2(C1)OC(=O)C(c1cc(C)c(C)cc1Br)=C2O (stereo not shown) [Example I-2-a-9],2.35
19,CCc1cc(Br)cc(Br)c1C1=C(O)C2(CCCC(OC)C2)OC1=O (stereo not shown) [Example I-2-a-26],2.77

# The remaining lines, values ahead:
row,logP,SMILES
1,2.70,COC1CCCC2(C1)OC(=O)C(c1c(C)cc(C)c(Br)c1C)=C2O (mixture of isomers) [I-2-a-41]
2,2.47,COC1CCCC2(C1)OC(=O)C(c1cc(Cl)c(C)cc1Cl)=C2O (mixture of isomers) [I-2-a-48]
3,3.57,CCCCOC1CCCC2(C1)OC(=O)C(c1cc(C)c(C)cc1Br)=C2O (stereo not shown) [I-2-a-59]
4,3.32,CCCCOC1CCCC2(C1)OC(=O)C(c1ccc(C)cc1C)=C2O (stereo not shown) [I-2-a-58]
5,1.92,COC1CCCC2(C1)OC(=O)C(c1c(C)cccc1Cl)=C2O (stereo not shown) [I-2-a-25]
6,2.30,COC1CCCC2(C1)OC(=O)C(c1cc(Br)ccc1C)=C2O (stereo not shown) [I-2-a-23]
7,2.47,COC1CCCC2(C1)OC(=O)C(c1cc(C)c(Cl)cc1C)=C2O (mixture of isomers) [I-2-a-43]
8,3.32,CCCCOC1CCCC2(C1)OC(=O)C(c1ccc(C)cc1Cl)=C2O (stereo not shown) [I-2-a-56]
9,2.70,COC1CCCC2(C1)OC(=O)C(c1c(Cl)cc(Br)c(C)c1Cl)=C2O (stereo not shown) [I-2-a-53]
10,4.24,CCCCOC1CCCC2(C1)OC(=O)C(c1c(CC)cc(Br)cc1CC)=C2O (stereo not shown) [I-2-a-55]
11,3.36,CCCCOC1CCCC2(C1)OC(=O)C(c1cc(C)ccc1C)=C2O (stereo not shown) [I-2-a-62]
12,2.51,COC1CCCC2(C1)OC(=O)C(c1c(Br)cc(C)cc1Br)=C2O (stereo not shown) [I-2-a-19]
13,3.99,CCCCOC1CCCC2(C1)OC(=O)C(c1c(C)cc(Br)cc1CC)=C2O (stereo not shown) [I-2-a-63]
14,2.27,COC1CCCC2(C1)OC(=O)C(c1cc(Br)ccc1Br)=C2O (mixture of isomers) [I-2-a-51]
15,2.37,COC1CCCC2(C1)OC(=O)C(c1ccc(Cl)cc1C(F)(F)F)=C2O (stereo not shown) [I-2-a-24]
16,3.03,CCCCOC1CCCC2(C1)OC(=O)C(c1ccccc1C)=C2O (stereo not shown) [I-2-a-57]
17,2.53,COC1CCCC2(C1)OC(=O)C(c1cc(Cl)c(Br)cc1Cl)=C2O (mixture of isomers) [I-2-a-40]
18,2.25,COC1CCCC2(C1)OC(=O)C(c1cc(F)c(C)cc1Br)=C2O (mixture of isomers) [I-2-a-44]
19,3.49,CCCCOC1CCCC2(C1)OC(=O)C(c1c(C)cc(C)cc1Cl)=C2O (stereo not shown) [I-2-a-60]
20,3.76,CCCCOC1CCCC2(C1)OC(=O)C(c1c(C)cc(C)c(C)c1C)=C2O (stereo not shown) [I-2-a-61]

# Same assay, conditions: compounds of formula (I-2-b); isomer (cis, trans or α + β about 1:1); two values for α + β mixtures
row,logP,SMILES
1,3.75,COc1cc(C)cc(C)c1C1=C(OC(=O)C(C)C)C2(CCCC(OC)C2)OC1=O (stereo not shown) [Example I-2-b-6]
2,3.90,COc1cc(C)cc(C)c1C1=C(OC(=O)C(C)C)C2(CCCC(OC)C2)OC1=O (stereo not shown) [Example I-2-b-5]
3,4.15,COC1CCCC2(C1)OC(=O)C(c1c(C)cc(C)cc1C)=C2OC(=O)C(C)C (stereo not shown) [Example I-2-b-4]
4,5.25,COC1CCCC2(C1)OC(=O)C(c1cc(-c3ccc(Cl)cc3)c(C)cc1C)=C2OC(=O)C(C)C (stereo not shown) [Example I-2-b-2]

# Same assay, conditions: compounds of formula (II); two values where an α/β isomer mixture is given
row,log P,SMILES
1,log P 3.64,"CCc1cc(C)cc(Br)c1CC(=O)NC1(C(=O)OC)CCCC(OCCOC)C1 (single isomer, unassigned) [II-28]"

# Same assay, conditions: reverse-phase HPLC column (C 18); HPLC, reverse-phase column (C 18), 43° C.
row,chromatographic logP,SMILES
1,3.57,CCCCOC1CCCC2(C1)OC(=O)C(c1c(C)cc(C)cc1C)=C2O (stereo not shown) [Example I-2-a-1]
2,5.37,CO[C@H]1CCC[C@]2(C1)OC(=O)C(c1cc(-c3ccc(Cl)cc3)c(C)cc1C)=C2OC(=O)C(C)C [Example I-2-b-1]
3,5.21,CO[C@H]1CCC[C@@]2(C1)OC(=O)C(c1cc(-c3ccc(Cl)cc3)c(C)cc1C)=C2OC(=O)OC(C)C [Example I-2-c-1]
